Assay results as given in patent US20250090659A1, “COMBINATION THERAPY WITH AN ANTI-CD19 ANTIBODY AND PARSACLISIB” (Incyte Corporation, priority 2020, published 2025).

What was measured:
[1] = system: A20 murine lymphoma cells; assay: In vivo efficacy in A20 mouse lymphoma model; design: species or system Balb/c mice
Method: Female Balb/c mice were subcutaneously inoculated with 5×10^5 A20 murine lymphoma cells to form flank tumors. When tumors reached approximately 100 mm^3, mice were randomized into 4 groups for dosing (N=10 mice/group). Dosing groups were as follows: (1) Vehicle (5% dimethyl acetimde+95% methylcellulose)-administered by mouth twice a day; (2) Murine anti-CD19 antibody (12014B35 from Absolute Antibody)—[…] administered intraperitoneally once weekly; (3) Parsaclisib (INCB050465)—3 mg/kg administered by mouth twice a day; and (4) Murine anti-CD19 antibody+Parsaclisib.
Tumor volumes were measured twice weekly. The study concluded when mean tumor volumes of each group reached 2000 mm^3. All doses were tolerated as assessed by body weights. Percent tumor growth inhibition (TGI %) was calculated by: [1-(mean tumor volume of test group)/(mean tumor volume of vehicle group)]×100. Tumor growth delay (TGD) was determined by the number of days needed (approximate) after dosing ceases for mean tumor volumes of dosed groups to reach the final mean tumor volume of the vehicle group.

WSU-NHL cells = assay: Cell proliferation (Cell titer Glo), WSU-NHL; type: cell-based; conditions: no NK cells, 24, 48 and 72 hours
Method: (§1) Besides ADCC cytotoxicity, effects of tafasitamab and parsaclisib on cell proliferation were also evaluated by treating target cells with matrix dosing of tafasitamab and parsaclisib in the absence of NK cells. After 24 hours, 48 hours, and 72 hours, proliferation was assessed by adding 100 ul of Cell titer Glo to wells containing 100 ul of treated cells in duplicates. The data was presented as RLUs, which is in proportion to cell proliferation.

SuDHL4 cells = assay: Cell proliferation (Cell titer Glo), SuDHL4; type: cell-based; conditions: no NK cells, 24, 48 and 72 hours
Method: as §1

Pfeiffer cells = assay: Cell proliferation (Cell titer Glo), Pfeiffer; type: cell-based; conditions: no NK cells, 24, 48 and 72 hours
Method: as §1

SuDHL6 cells = assay: Cell proliferation (Cell titer Glo), SuDHL6; type: cell-based; conditions: no NK cells, 24, 48 and 72 hours
Method: as §1

JVM2 cells [2] = assay: ADCC assay with NK cells, JVM2 target cells; type: cell-based; conditions: JVM2 cells pre-treated 7 days with parsaclisib 0.3 to 20 μM or DMSO, E:T 2:1, tafasitamab 1:10 dilutions from 1 μg/ml, 4 hours, dead target cells by flow cytometry
Method: (§2) The cytotoxicity of tafasitamab and parsaclisib (INCB050465) alone and in combination was tested in the following cells lines: MEC-1 (CLL), MEC-2 (CLL), JVM-2 (Mantle Cell Lymphoma), WSU-NHL, Pfeiffer, Su-DHL4, and Su-DHL6.
(§3) Target cells were pre-treated for 7 days with various doses of parsaclisib in the range of 0.3 to 20 μM (parsaclisib alone group and tafasitamab and parsaclisib combination group). The tafasitamab alone group was pre-treated with DMSO for the same period of time.
NK cells were isolated from human primary PBMC from multiple donors using EasySep™ Human NK Cell Isolation Kit (STEMCELL Technologies) and frozen. NK cells were thawed and cultured overnight in medium supplemented with 2 IU/ml of IL-2 (Peprotech) 24 hours before the ADCC assay. […]
(§4) The cytotoxicity of tafasitamab alone was evaluated following the same procedure in cells that were treated with DMSO. […] After 4 hours incubation, cells were stained with Zombie Violet fixable cell viability dye (Biolegend 423114) and measured by flow cytometry to evaluate cell toxicity. […]
Data from two separately conducted experiments were analyzed to assess potential synergistic activity of tafasitamab and parsaclisib in JVM2 cells. […] Synergy scores were calculated using SynergyFinder 2.0 (https://synergyfinder.fimm.fi). […]

Mec1 cells = assay: ADCC assay with NK cells, Mec1 target cells; type: cell-based; conditions: Mec1 cells pre-treated 7 days with parsaclisib 0.3 to 20 μM or DMSO, E:T 2:1, tafasitamab 1:10 dilutions from 1 μg/ml, 4 hours, dead target cells by flow cytometry
Method: as §2, §3
NK cells were isolated from human primary PBMC from multiple donors using EasySep™ Human NK Cell Isolation Kit (STEMCELL Technologies) and frozen. NK cells were thawed and cultured overnight in medium supplemented with 2 IU/ml of IL-2 (Peprotech) 24 hours before the ADCC assay.
The following controls were used in all experiments: (i) Target cells+NK cells without antibodies; (ii) Target cells+NK cells+huIgG1 isotype control antibody; and (iii) Target cells alone. […]
as §4

Mec2 cells = assay: Cell proliferation (Cell titer Glo), Mec2; type: cell-based; conditions: no NK cells, 24, 48 and 72 hours
Method: as §1

JVM2 cells [3] = assay: Cell proliferation (Cell titer Glo), JVM2; type: cell-based; conditions: no NK cells, 24, 48 and 72 hours
Method: as §1

Molecule	TGI (%) ([1]; A20 flank tumors in Balb/c mice, antibody 150 mg i.p. once weekly, parsaclisib 3 mg/kg by mouth twice a day, vs vehicle group)	TGD ([1]; approximate days after dosing ceases for mean tumor volume to reach final mean tumor volume of vehicle group)	cell proliferation (RLUs) (WSU-NHL cells)	cell proliferation (RLUs) (SuDHL4 cells)	cell proliferation (RLUs) (Pfeiffer cells)	cell proliferation (RLUs) (SuDHL6 cells)	ADCC activity (JVM2 cells [2])	ADCC activity (Mec1 cells)	cell proliferation (RLUs) (Mec2 cells)	cell proliferation (RLUs) (JVM2 cells [3])
CCOc1c(C(C)n2nc(C)c3c(N)ncnc32)cc(Cl)c(F)c1C1CNC(=O)C1 (stereo not drawn) [Parsaclisib, 4-{3-[1-(4-amino-3-methyl-1H-pyrazolo[3,4-d]pyrimidin-1-yl)ethyl]-5-chloro-2-ethoxy-6-fluorophenyl}pyrrolidin-2-one]	26.6%	1.4 days	proliferation was inhibited by the treatment of parsaclisib in time and dose dependent manners	showed sensitivity to neither	proliferation was inhibited by the treatment of parsaclisib in time and dose dependent manners	showed sensitivity to neither				
Tafasitamab: IgG1-G2/kappa Fc-engineered (S239D, I332E) monoclonal antibody targeting human CD19; heavy chain SEQ ID NO:2, light chain SEQ ID NO:3 (antibody) heavy: EVQLVESGGGLVKPGGSLKLSCAASGYTFTSYVMHWVRQAPGKGLEWIGYINPYNDGTKYNEKFQGRVTISSDKSISTAYMELSSLRSEDTAMYYCARGTYYYGTRVFDYWGQGTLVTVSSASTKGPSVFPLAPSSKSTSGGTAALGCLVKDYFPEPVTVSWNSGALTSGVHTFPAVLQSSGLYSLSSVVTVPSSSLGTQTYICNVNHKPSNTKVDKKVEPKSCDKTHTCPPCPAPELLGGPDVFLFPPKPKDTLMISRTPEVTCVVVDVSHEDPEVQFNWYVDGVEVHNAKTKPREEQFNSTFRVVSVLTVVHQDWLNGKEYKCKVSNKALPAPEEKTISKTKGQPREPQVYTLPPSREEMTKNQVSLTCLVKGFYPSDIAVEWESNGQPENNYKTTPPMLDSDGSFFLYSKLTVDKSRWQQGNVFSCSVMHEALHNHYTQKSLSLSPGK light: DIVMTQSPATLSLSPGERATLSCRSSKSLQNVNGNTYLYWFQQKPGQSPQLLIYRMSNLNSGVPDRFSGSGSGTEFTLTISSLEPEDFAVYYCMQHLEYPITFGAGTKLEIKRTVAAPSVFIFPPSDEQLKSGTASVVCLLNNFYPREAKVQWKVDNALQSGNSQESVTEQDSKDSTYSLSSTLTLSKADYEKHKVYACEVTHQGLSSPVTKSFNRGEC				showed sensitivity to neither		showed sensitivity to neither	displayed ADCC activity in a dose dependent manner	displayed ADCC activity in a dose dependent manner	proliferation was inhibited by tafasitamab in time and dose dependent manners	proliferation was inhibited by tafasitamab in time and dose dependent manners
